Measurements reported in patent US20100003217A1, “Compounds and Pharmaceutical Compositions for the Treatment of Viral Infections” (priority 2008, published 2010).
Where “and” joins values, the source holds several entries; their conditions need not be identical. Equal entries are not always repeated.

Legend:
[1] = test system: monkey primary hepatocytes; assay: Metabolic disposition of [^14C]-Compound 1 and [^14C]-2′-C-methyl guanosine in monkey primary hepatocytes (incubation medium, cellular extracts, nucleotide levels); format: in vitro ADME, Cynomolgus monkey
How it was run: (§1)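 Rat, monkey or human primary hepatocytes on collagen I plates (1.6 million cells/mL) were incubated at 37° C with 1 or 10 μM C-8 [^14C]-labelled compound or 2′-C-methyl guanosine for 1, 4, 8 and 24 hours. Medium and 70% methanol cell extracts were analysed by LSC and radio-HPLC. Nucleotides were identified by alkaline phosphatase treatment and retention-time matching to standards.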

rat primary hepatocytes = assay: Metabolic disposition of [^14C]-Compound 1 and [^14C]-2′-C-methyl guanosine in rat primary hepatocytes (incubation medium, cellular extracts, nucleotide levels); format: in vitro ADME, Sprague Dawley rat
How it was run: as §1

[2] = monkey hepatocytes (Cy234), 10 μM [^14C]-Compound 1, 4 h
[3] = monkey hepatocytes Cy230, 10 μM [^14C]-2′-C-methyl guanosine, 1 h
[4] = monkey hepatocytes Cy230, 10 μM [^14C]-2′-C-methyl guanosine, 8 h
[5] = monkey hepatocytes Cy230, 10 μM [^14C]-2′-C-methyl guanosine, 24 h
[6] = monkey hepatocytes Cy234, 10 μM [^14C]-2′-C-methyl guanosine, 1 h
[7] = monkey hepatocytes Cy234, 10 μM [^14C]-2′-C-methyl guanosine, 4 h
[8] = monkey hepatocytes Cy234, 10 μM [^14C]-2′-C-methyl guanosine, 8 h
[9] = monkey hepatocytes Cy234, 10 μM [^14C]-2′-C-methyl guanosine, 24 h
[10] = rat hepatocytes (Rs458), 1 μM [^14C]-Compound 1, 1 h
[11] = rat hepatocytes (Rs458), 1 μM [^14C]-Compound 1, 8 h
[12] = rat hepatocytes (Rs458), 1 μM [^14C]-Compound 1, 24 h
[13] = rat hepatocytes Rs448, 10 μM [^14C]-2′-C-methyl guanosine, 1 h
[14] = rat hepatocytes Rs448, 10 μM [^14C]-2′-C-methyl guanosine, 4 h
[15] = rat hepatocytes Rs448, 10 μM [^14C]-2′-C-methyl guanosine, 8 h
[16] = rat hepatocytes Rs448, 10 μM [^14C]-2′-C-methyl guanosine, 24 h
[17] = rat hepatocytes Rs458, 1 μM [^14C]-2′-C-methyl guanosine, 1 h
[18] = rat hepatocytes Rs458, 1 μM [^14C]-2′-C-methyl guanosine, 8 h
[19] = rat hepatocytes Rs458, 1 μM [^14C]-2′-C-methyl guanosine, 24 h
[20] = rat hepatocytes Rs458, 10 μM [^14C]-2′-C-methyl guanosine, 1 h
[21] = rat hepatocytes Rs458, 10 μM [^14C]-2′-C-methyl guanosine, 4 h
[22] = rat hepatocytes Rs458, 10 μM [^14C]-2′-C-methyl guanosine, 8 h
[23] = rat hepatocytes Rs458, 10 μM [^14C]-2′-C-methyl guanosine, 24 h

metabolites observed in cellular extracts (% of total radioactivity) ([1]; monkey hepatocytes (Cy230, Cy234), 10 μM [^14C]-Compound 1, 1 h): 9.25% and 9.65%
metabolites observed in cellular extracts (% of total radioactivity) ([1]; monkey hepatocytes (Cy230, Cy234), 10 μM [^14C]-Compound 1, 8 h): 13.8% and 14.9%
metabolites observed in cellular extracts (% of total radioactivity) ([1]; monkey hepatocytes (Cy230, Cy234), 10 μM [^14C]-Compound 1, 24 h): 18.5% and 16.0%
2′-C-methyl guanosine nucleotide levels in cellular extracts [1, 2]: 44.5 pmol/million cells
metabolites observed in cellular extracts (% of total radioactivity) [1, 2]: 17.1%
2′-C-methyl guanosine nucleotide levels in cellular extracts ([1]; monkey hepatocytes Cy230, 10 μM [^14C]-2′-C-methyl guanosine, 0 h): 0 pmol/million cells
2′-C-methyl guanosine nucleotide levels in cellular extracts [1, 4]: 2.07 pmol/million cells
Major metabolites observed in cellular extracts (% of total radioactivity) [1, 4]: 2.82 % of total radioactivity
2′-C-methyl guanosine nucleotide levels in cellular extracts [1, 5]: 2.16 pmol/million cells
Major metabolites observed in cellular extracts (% of total radioactivity) [1, 5]: 8.41 % of total radioactivity
2′-C-methyl guanosine nucleotide levels in cellular extracts ([1]; monkey hepatocytes Cy230, 10 μM [^14C]-Compound 1, 0 h): 0 pmol/million cells
2′-C-methyl guanosine nucleotide levels in cellular extracts ([1]; monkey hepatocytes Cy230, 10 μM [^14C]-Compound 1, 1 h): 26.3 pmol/million cells
2′-C-methyl guanosine nucleotide levels in cellular extracts ([1]; monkey hepatocytes Cy230, 10 μM [^14C]-Compound 1, 8 h): 153 pmol/million cells
2′-C-methyl guanosine nucleotide levels in cellular extracts ([1]; monkey hepatocytes Cy230, 10 μM [^14C]-Compound 1, 24 h): 88.4 pmol/million cells
2′-C-methyl guanosine nucleotide levels in cellular extracts ([1]; monkey hepatocytes Cy234, 10 μM [^14C]-2′-C-methyl guanosine, 0 h): 0 pmol/million cells
2′-C-methyl guanosine nucleotide levels in cellular extracts [1, 6]: 0.95 pmol/million cells
Major metabolites observed in cellular extracts (% of total radioactivity) [1, 6]: 2.19 % of total radioactivity
2′-C-methyl guanosine nucleotide levels in cellular extracts [1, 7]: 5.30 pmol/million cells
Major metabolites observed in cellular extracts (% of total radioactivity) [1, 7]: 6.51 % of total radioactivity
2′-C-methyl guanosine nucleotide levels in cellular extracts [1, 8]: 7.00 pmol/million cells
Major metabolites observed in cellular extracts (% of total radioactivity) [1, 8]: 7.90 % of total radioactivity
2′-C-methyl guanosine nucleotide levels in cellular extracts [1, 9]: 15.0 pmol/million cells
Major metabolites observed in cellular extracts (% of total radioactivity) [1, 9]: 14.1 % of total radioactivity
2′-C-methyl guanosine nucleotide levels in cellular extracts ([1]; monkey hepatocytes Cy234, 10 μM [^14C]-Compound 1, 0 h): 0 pmol/million cells
2′-C-methyl guanosine nucleotide levels in cellular extracts ([1]; monkey hepatocytes Cy234, 10 μM [^14C]-Compound 1, 1 h): 6.10 pmol/million cells
2′-C-methyl guanosine nucleotide levels in cellular extracts ([1]; monkey hepatocytes Cy234, 10 μM [^14C]-Compound 1, 8 h): 91.0 pmol/million cells
2′-C-methyl guanosine nucleotide levels in cellular extracts ([1]; monkey hepatocytes Cy234, 10 μM [^14C]-Compound 1, 24 h): 111 pmol/million cells
metabolites observed in cellular extracts (% of total radioactivity) (rat primary hepatocytes; rat hepatocytes (Rs448, Rs458), 10 μM [^14C]-Compound 1, 1 h, listed as Compd 6): 11.4% and 12.3%
metabolites observed in cellular extracts (% of total radioactivity) (rat primary hepatocytes; rat hepatocytes (Rs448, Rs458), 10 μM [^14C]-Compound 1, 4 h, listed as Compd 6): 13.4% and 16.7%
metabolites observed in cellular extracts (% of total radioactivity) (rat primary hepatocytes; rat hepatocytes (Rs448, Rs458), 10 μM [^14C]-Compound 1, 8 h, listed as Compd 6): 12.7% and 16.8%
metabolites observed in cellular extracts (% of total radioactivity) (rat primary hepatocytes; rat hepatocytes (Rs448, Rs458), 10 μM [^14C]-Compound 1, 24 h, listed as Compd 6): 15.2% and 14.6%
2′-C-methyl guanosine nucleotide levels in cellular extracts (rat primary hepatocytes; [10]): 20.0 pmol/million cells
metabolites observed in cellular extracts (% of total radioactivity) (rat primary hepatocytes; [10]): 13.0%
2′-C-methyl guanosine nucleotide levels in cellular extracts (rat primary hepatocytes; [11]): 41.2 pmol/million cells
metabolites observed in cellular extracts (% of total radioactivity) (rat primary hepatocytes; [11]): 13.27%
2′-C-methyl guanosine nucleotide levels in cellular extracts (rat primary hepatocytes; [12]): 30.0 pmol/million cells
metabolites observed in cellular extracts (% of total radioactivity) (rat primary hepatocytes; [12]): 18.1%
2′-C-methyl guanosine nucleotide levels in cellular extracts (rat primary hepatocytes; rat hepatocytes Rs448, 10 μM [^14C]-2′-C-methyl guanosine, 0 h): 0 pmol/million cells
2′-C-methyl guanosine nucleotide levels in cellular extracts (rat primary hepatocytes; [13]): 7.00 pmol/million cells
Major metabolites observed in cellular extracts (% of total radioactivity) (rat primary hepatocytes; [13]): 1.24 % of total radioactivity
2′-C-methyl guanosine nucleotide levels in cellular extracts (rat primary hepatocytes; [14]): 28.0 pmol/million cells
Major metabolites observed in cellular extracts (% of total radioactivity) (rat primary hepatocytes; [14]): 3.54 % of total radioactivity
2′-C-methyl guanosine nucleotide levels in cellular extracts (rat primary hepatocytes; [15]): 47.0 pmol/million cells
Major metabolites observed in cellular extracts (% of total radioactivity) (rat primary hepatocytes; [15]): 4.76 % of total radioactivity
2′-C-methyl guanosine nucleotide levels in cellular extracts (rat primary hepatocytes; [16]): 101 pmol/million cells
Major metabolites observed in cellular extracts (% of total radioactivity) (rat primary hepatocytes; [16]): 10.4 % of total radioactivity
2′-C-methyl guanosine nucleotide levels in cellular extracts (rat primary hepatocytes; rat hepatocytes Rs448, 10 μM [^14C]-Compound 1, 0 h): 0 pmol/million cells
2′-C-methyl guanosine nucleotide levels in cellular extracts (rat primary hepatocytes; rat hepatocytes Rs448, 10 μM [^14C]-Compound 1, 1 h): 112 pmol/million cells
2′-C-methyl guanosine nucleotide levels in cellular extracts (rat primary hepatocytes; rat hepatocytes Rs448, 10 μM [^14C]-Compound 1, 4 h): 269 pmol/million cells
2′-C-methyl guanosine nucleotide levels in cellular extracts (rat primary hepatocytes; rat hepatocytes Rs448, 10 μM [^14C]-Compound 1, 8 h): 311 pmol/million cells
2′-C-methyl guanosine nucleotide levels in cellular extracts (rat primary hepatocytes; rat hepatocytes Rs448, 10 μM [^14C]-Compound 1, 24 h): 215 pmol/million cells
2′-C-methyl guanosine nucleotide levels in cellular extracts (rat primary hepatocytes; [17]): 0.85 pmol/million cells
Major metabolites observed in cellular extracts (% of total radioactivity) (rat primary hepatocytes; [17]): 1.50 % of total radioactivity
2′-C-methyl guanosine nucleotide levels in cellular extracts (rat primary hepatocytes; [18]): 4.00 pmol/million cells
Major metabolites observed in cellular extracts (% of total radioactivity) (rat primary hepatocytes; [18]): 5.14 % of total radioactivity
2′-C-methyl guanosine nucleotide levels in cellular extracts (rat primary hepatocytes; [19]): 8.00 pmol/million cells
Major metabolites observed in cellular extracts (% of total radioactivity) (rat primary hepatocytes; [19]): 9.88 % of total radioactivity
2′-C-methyl guanosine nucleotide levels in cellular extracts (rat primary hepatocytes; rat hepatocytes Rs458, 10 μM [^14C]-2′-C-methyl guanosine, 0 h): 0 pmol/million cells
2′-C-methyl guanosine nucleotide levels in cellular extracts (rat primary hepatocytes; [20]): 5.60 pmol/million cells
Major metabolites observed in cellular extracts (% of total radioactivity) (rat primary hepatocytes; [20]): 1.08 % of total radioactivity
2′-C-methyl guanosine nucleotide levels in cellular extracts (rat primary hepatocytes; [21]): 28.0 pmol/million cells
Major metabolites observed in cellular extracts (% of total radioactivity) (rat primary hepatocytes; [21]): 4.01 % of total radioactivity
2′-C-methyl guanosine nucleotide levels in cellular extracts (rat primary hepatocytes; [22]): 48.0 pmol/million cells
Major metabolites observed in cellular extracts (% of total radioactivity) (rat primary hepatocytes; [22]): 5.42 % of total radioactivity
2′-C-methyl guanosine nucleotide levels in cellular extracts (rat primary hepatocytes; [23]): 91.0 pmol/million cells
Major metabolites observed in cellular extracts (% of total radioactivity) (rat primary hepatocytes; [23]): 9.65 % of total radioactivity
2′-C-methyl guanosine nucleotide levels in cellular extracts (rat primary hepatocytes; rat hepatocytes Rs458, 10 μM [^14C]-Compound 1, 0 h): 0 pmol/million cells
2′-C-methyl guanosine nucleotide levels in cellular extracts (rat primary hepatocytes; rat hepatocytes Rs458, 10 μM [^14C]-Compound 1, 1 h): 129 pmol/million cells
2′-C-methyl guanosine nucleotide levels in cellular extracts (rat primary hepatocytes; rat hepatocytes Rs458, 10 μM [^14C]-Compound 1, 4 h): 326 pmol/million cells
2′-C-methyl guanosine nucleotide levels in cellular extracts (rat primary hepatocytes; rat hepatocytes Rs458, 10 μM [^14C]-Compound 1, 8 h): 375 pmol/million cells
2′-C-methyl guanosine nucleotide levels in cellular extracts (rat primary hepatocytes; rat hepatocytes Rs458, 10 μM [^14C]-Compound 1, 24 h): 207 pmol/million cells
SMILES: C[C@@]1(O)[C@H](O)[C@@H](COP(=O)(O)OP(=O)(O)O)O[C@H]1n1cnc2c(=O)[nH]c(N)nc21 [Compound 6, [(2R)-2-methyl-β-D-ribofuranosyl]guanine 5′-diphosphate]
2′-C-methyl guanosine nucleotide levels in cellular extracts [1, 3]: BLD (BLD = below limit of detection (0.02 pmol/million cells))
Major metabolites observed in cellular extracts (% of total radioactivity) [1, 3]: BLD (BLD = below limit of detection (30 DPM))
2′-C-methyl guanosine nucleotide levels in cellular extracts (rat primary hepatocytes; rat hepatocytes (Rs458), 1 μM [^14C]-Compound 1, 0 h): BLD (BLD = below limit of detection (0.02 pmol/million cells))
2′-C-methyl guanosine nucleotide levels in cellular extracts (rat primary hepatocytes; rat hepatocytes Rs458, 1 μM [^14C]-2′-C-methyl guanosine, 0 h): BLD (BLD = below limit of detection (0.02 pmol/million cells))
